Tests used:
Test in all cases: KINOMEscan competition binding
Settings in all cases: compound 10.0 µM
MAPK10 (human) = MAPK10 (human) (UniProt P53779)
IGF1R (human) = IGF1R (human) (UniProt P08069)
MAP3K2 (human) = MAP3K2 (human) (UniProt Q9Y2U5)
HUNK (human) = HUNK (human) (UniProt P57058)
[1] = test system: FLT3 (human), P36888 [R834Q]
ULK3 (human) = ULK3 (human) (UniProt Q6PHR2)
BRAF (human) = BRAF (human) (UniProt P15056)
TAOK3 (human) = TAOK3 (human) (UniProt Q9H2K8)
CSNK1G2 (human) = CSNK1G2 (human) (UniProt P78368)
MAP3K11 (human) = MAP3K11 (human) (UniProt Q16584)
CAMK2B (human) = CAMK2B (human) (UniProt Q13554)
CDK4 CCND1 (human) = CDK4 CCND1 (human) (UniProt P11802+P24385)
CDKL3 (human) = CDKL3 (human) (UniProt Q8IVW4)
BLK (human) = BLK (human) (UniProt P51451)
MKNK1 (human) = MKNK1 (human) (UniProt Q9BUB5)
SIK1 (human) = SIK1 (human) (UniProt P57059)
MAP3K10 (human) = MAP3K10 (human) (UniProt Q02779)
SGK110 (human) = SGK110 (human) (UniProt P0C264)
BMPR1A (human) = BMPR1A (human) (UniProt P36894)
MST4 (human) = MST4 (human) (UniProt Q9P289)
MST4 (human), sequence (Q9P289 whole entry, looked up): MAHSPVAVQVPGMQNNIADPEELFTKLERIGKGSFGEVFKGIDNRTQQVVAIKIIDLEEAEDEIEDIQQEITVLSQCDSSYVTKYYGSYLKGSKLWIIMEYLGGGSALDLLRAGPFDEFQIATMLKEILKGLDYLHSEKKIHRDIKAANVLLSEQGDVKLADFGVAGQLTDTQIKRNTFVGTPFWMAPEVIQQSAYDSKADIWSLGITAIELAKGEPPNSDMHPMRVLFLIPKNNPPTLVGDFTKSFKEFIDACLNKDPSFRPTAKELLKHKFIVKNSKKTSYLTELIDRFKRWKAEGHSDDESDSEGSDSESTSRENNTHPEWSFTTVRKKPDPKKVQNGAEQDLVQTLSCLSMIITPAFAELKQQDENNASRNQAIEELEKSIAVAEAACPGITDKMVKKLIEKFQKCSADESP

EGFR (human) = EGFR (human) (UniProt P00533)
ADCK4 (human) = ADCK4 (human) (UniProt Q96D53)
ADCK4 (human), sequence (Q96D53 whole entry, looked up): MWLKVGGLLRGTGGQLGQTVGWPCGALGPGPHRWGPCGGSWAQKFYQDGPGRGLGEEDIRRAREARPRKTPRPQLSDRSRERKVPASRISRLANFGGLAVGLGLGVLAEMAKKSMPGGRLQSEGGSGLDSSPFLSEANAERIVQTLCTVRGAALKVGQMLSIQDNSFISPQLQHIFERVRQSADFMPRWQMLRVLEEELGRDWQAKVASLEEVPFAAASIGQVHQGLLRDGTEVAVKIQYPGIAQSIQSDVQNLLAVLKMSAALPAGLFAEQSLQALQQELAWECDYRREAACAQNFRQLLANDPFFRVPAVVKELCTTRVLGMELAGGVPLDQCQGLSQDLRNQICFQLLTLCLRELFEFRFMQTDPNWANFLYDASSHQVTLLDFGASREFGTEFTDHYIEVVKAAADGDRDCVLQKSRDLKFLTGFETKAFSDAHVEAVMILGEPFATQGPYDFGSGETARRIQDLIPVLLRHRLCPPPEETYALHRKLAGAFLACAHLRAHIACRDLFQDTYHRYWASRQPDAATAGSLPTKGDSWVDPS

MAP3K7 (human) = MAP3K7 (human) (UniProt O43318)
RAF1 (human) = RAF1 (human) (UniProt P04049)
PAK3 (human) = PAK3 (human) (UniProt O75914)
MARK3 (human) = MARK3 (human) (UniProt P27448)
CDK18 (human) = CDK18 (human) (UniProt Q07002)
TLK1 (human) = TLK1 (human) (UniProt Q9UKI8)
ROCK2 (human) = ROCK2 (human) (UniProt O75116)
ROCK2 (human), sequence (O75116 whole entry, looked up): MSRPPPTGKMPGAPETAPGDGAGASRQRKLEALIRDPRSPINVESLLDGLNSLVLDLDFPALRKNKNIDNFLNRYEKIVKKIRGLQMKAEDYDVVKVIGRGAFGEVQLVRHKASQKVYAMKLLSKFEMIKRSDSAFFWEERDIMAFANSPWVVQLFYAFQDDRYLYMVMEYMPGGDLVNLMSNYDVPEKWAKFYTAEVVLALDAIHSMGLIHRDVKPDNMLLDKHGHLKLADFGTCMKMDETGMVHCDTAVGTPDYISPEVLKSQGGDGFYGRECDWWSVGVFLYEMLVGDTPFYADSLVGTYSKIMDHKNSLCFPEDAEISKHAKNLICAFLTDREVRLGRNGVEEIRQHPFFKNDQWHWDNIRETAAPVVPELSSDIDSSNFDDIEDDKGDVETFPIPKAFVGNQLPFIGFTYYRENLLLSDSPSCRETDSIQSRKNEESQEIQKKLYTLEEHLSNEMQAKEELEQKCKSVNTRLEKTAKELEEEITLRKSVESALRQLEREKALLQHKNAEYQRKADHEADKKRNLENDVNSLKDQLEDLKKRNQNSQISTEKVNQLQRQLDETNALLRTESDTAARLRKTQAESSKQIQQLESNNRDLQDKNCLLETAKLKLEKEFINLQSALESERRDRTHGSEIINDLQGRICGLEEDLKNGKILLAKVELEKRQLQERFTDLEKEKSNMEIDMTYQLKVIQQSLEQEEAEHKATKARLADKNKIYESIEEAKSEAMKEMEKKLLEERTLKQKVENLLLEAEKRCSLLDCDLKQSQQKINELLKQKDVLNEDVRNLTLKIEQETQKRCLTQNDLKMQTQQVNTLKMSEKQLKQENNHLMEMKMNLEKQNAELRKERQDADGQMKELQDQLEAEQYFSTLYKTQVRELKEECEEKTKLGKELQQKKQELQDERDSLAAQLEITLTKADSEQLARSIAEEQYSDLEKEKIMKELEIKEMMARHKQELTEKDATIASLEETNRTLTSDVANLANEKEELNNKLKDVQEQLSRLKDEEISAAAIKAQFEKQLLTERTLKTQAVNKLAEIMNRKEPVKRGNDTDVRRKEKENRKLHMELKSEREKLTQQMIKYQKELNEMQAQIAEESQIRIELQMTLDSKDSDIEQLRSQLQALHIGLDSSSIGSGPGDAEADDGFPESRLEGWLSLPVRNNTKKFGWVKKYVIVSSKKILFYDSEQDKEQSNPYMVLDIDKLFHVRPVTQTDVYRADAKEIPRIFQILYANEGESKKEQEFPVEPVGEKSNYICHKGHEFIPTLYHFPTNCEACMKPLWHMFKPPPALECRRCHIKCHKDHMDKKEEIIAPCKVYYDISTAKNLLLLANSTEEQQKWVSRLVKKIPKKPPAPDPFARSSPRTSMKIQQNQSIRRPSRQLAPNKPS

SIK3 (human) = SIK3 (human) (UniProt Q9Y2K2)
CHEK1 (human) = CHEK1 (human) (UniProt O14757)
FRK (human) = FRK (human) (UniProt P42685)
MAP2K5 (human) = MAP2K5 (human) (UniProt Q13163)
MAP4K1 (human) = MAP4K1 (human) (UniProt Q92918)
MAP4K1 (human), sequence (Q92918 whole entry, looked up): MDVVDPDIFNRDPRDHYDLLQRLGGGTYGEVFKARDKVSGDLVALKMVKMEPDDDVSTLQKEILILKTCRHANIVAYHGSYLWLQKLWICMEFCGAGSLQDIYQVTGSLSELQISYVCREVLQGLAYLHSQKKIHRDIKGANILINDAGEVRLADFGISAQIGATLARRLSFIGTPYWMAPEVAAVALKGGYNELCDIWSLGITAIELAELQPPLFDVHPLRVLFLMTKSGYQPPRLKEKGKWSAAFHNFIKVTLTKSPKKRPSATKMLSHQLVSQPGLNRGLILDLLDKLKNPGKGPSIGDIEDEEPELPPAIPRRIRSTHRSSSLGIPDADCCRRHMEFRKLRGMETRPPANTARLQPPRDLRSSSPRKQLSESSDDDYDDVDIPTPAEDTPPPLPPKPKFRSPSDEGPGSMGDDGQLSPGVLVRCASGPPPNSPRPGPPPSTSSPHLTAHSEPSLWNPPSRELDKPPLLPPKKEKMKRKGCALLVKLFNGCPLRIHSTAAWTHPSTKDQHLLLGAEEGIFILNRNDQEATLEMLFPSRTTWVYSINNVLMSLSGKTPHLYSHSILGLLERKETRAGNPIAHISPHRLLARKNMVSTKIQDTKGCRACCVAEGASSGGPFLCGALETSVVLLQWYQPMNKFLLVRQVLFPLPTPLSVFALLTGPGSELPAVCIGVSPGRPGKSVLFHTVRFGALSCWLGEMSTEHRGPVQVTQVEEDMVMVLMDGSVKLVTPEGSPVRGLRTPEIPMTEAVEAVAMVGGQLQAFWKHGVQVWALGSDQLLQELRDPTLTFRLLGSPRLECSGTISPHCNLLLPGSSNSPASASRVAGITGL

MAP3K3 (human) = MAP3K3 (human) (UniProt Q99759)
MAP3K3 (human), sequence (Q99759 whole entry, looked up): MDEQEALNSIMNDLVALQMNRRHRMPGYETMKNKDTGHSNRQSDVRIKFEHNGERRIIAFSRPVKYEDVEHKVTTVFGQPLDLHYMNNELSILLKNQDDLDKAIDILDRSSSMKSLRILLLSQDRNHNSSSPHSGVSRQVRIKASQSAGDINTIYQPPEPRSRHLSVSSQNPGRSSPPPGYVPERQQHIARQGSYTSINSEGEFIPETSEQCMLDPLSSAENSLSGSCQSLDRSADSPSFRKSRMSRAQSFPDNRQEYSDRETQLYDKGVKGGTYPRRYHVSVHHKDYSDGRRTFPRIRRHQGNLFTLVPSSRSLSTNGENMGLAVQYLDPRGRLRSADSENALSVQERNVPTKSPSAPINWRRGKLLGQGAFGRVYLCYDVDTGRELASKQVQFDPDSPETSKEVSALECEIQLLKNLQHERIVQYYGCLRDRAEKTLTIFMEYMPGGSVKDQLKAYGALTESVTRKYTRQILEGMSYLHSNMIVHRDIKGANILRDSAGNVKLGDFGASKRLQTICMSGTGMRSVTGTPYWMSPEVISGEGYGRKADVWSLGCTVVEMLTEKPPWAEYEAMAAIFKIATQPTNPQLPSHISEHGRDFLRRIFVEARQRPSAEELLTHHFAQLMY

MAP3K15 (human) = MAP3K15 (human) (UniProt Q6ZN16)
ADCK3 (human) = ADCK3 (human) (UniProt Q8NI60)
LIMK1 (human) = LIMK1 (human) (UniProt P53667)
PLK1 (human) = PLK1 (human) (UniProt P53350)
MAPK13 (human) = MAPK13 (human) (UniProt O15264)
MYLK3 (human) = MYLK3 (human) (UniProt Q32MK0)

BRAF (human), sequence (P15056 whole entry, looked up): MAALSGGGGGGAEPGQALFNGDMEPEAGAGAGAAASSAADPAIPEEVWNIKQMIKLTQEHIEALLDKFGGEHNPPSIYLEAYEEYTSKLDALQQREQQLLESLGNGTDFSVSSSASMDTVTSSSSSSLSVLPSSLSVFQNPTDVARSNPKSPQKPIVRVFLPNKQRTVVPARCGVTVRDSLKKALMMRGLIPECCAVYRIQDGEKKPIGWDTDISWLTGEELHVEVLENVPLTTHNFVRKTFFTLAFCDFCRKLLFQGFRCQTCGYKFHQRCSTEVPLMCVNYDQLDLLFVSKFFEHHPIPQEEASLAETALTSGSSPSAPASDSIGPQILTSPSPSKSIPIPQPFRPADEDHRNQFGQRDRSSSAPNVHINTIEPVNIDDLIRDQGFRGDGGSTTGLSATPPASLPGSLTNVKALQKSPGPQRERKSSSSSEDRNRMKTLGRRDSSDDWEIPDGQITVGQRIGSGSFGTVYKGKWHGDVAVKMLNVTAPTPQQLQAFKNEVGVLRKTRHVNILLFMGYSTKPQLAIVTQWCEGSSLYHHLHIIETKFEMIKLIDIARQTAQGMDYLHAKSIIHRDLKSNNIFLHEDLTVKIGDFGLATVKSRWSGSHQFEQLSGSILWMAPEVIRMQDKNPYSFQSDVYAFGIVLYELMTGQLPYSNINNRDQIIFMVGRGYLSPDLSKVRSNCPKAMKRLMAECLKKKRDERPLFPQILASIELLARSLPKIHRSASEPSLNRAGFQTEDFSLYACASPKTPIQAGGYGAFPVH
MAPK10 (human), sequence (P53779 whole entry, looked up): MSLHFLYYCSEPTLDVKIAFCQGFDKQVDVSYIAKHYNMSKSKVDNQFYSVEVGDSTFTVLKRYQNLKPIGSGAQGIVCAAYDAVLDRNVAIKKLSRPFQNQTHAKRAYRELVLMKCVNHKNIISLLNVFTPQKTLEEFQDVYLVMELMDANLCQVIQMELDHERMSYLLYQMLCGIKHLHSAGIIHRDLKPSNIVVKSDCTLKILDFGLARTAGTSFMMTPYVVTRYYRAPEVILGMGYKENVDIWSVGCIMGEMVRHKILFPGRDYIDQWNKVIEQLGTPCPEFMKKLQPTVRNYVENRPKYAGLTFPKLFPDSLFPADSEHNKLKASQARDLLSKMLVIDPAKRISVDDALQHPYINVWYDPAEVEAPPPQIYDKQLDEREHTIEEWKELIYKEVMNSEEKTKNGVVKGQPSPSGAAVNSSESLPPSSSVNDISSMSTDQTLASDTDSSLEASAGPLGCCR

COC(=O)Nc1ccc(-c2nc(N3CCOCC3)c3cnn(C4CCN(C(=O)OC)CC4)c3n2)cc1
kinase still bound, per cent of control (MAPK10 (human)): 100% | per cent of control (IGF1R (human)): 98% | kinase still bound, per cent of control (MAP3K2 (human)): 89% | kinase still bound, per cent of control (HUNK (human)): 95% | kinase still bound, per cent of control [1]: 76% | kinase still bound, per cent of control (ULK3 (human)): 88% | kinase still bound, per cent of control (BRAF (human)): 74% | kinase still bound, per cent of control (TAOK3 (human)): 94% | kinase still bound, per cent of control (CSNK1G2 (human)): 98% | kinase still bound, per cent of control (MAP3K11 (human)): 97% | kinase still bound, per cent of control (CAMK2B (human)): 100% | per cent of control (CDK4 CCND1 (human)): 100% | per cent of control (CDKL3 (human)): 64% | kinase still bound, per cent of control (BLK (human)): 100% | kinase still bound, per cent of control (MKNK1 (human)): 37% | kinase still bound, per cent of control (SIK1 (human)): 100% | kinase still bound, per cent of control (MAP3K10 (human)): 100% | kinase still bound, per cent of control (SGK110 (human)): 92% | kinase still bound, per cent of control (BMPR1A (human)): 100% | kinase still bound, per cent of control (MST4 (human)): 80% | kinase still bound, per cent of control (EGFR (human)): 100% | kinase still bound, per cent of control (ADCK4 (human)): 73% | kinase still bound, per cent of control (MAP3K7 (human)): 70% | kinase still bound, per cent of control (RAF1 (human)): 91% | kinase still bound, per cent of control (PAK3 (human)): 83% | kinase still bound, per cent of control (MARK3 (human)): 100% | per cent of control (CDK18 (human)): 100% | kinase still bound, per cent of control (TLK1 (human)): 91% | kinase still bound, per cent of control (ROCK2 (human)): 79% | kinase still bound, per cent of control (SIK3 (human)): 83% | kinase still bound, per cent of control (CHEK1 (human)): 96% | kinase still bound, per cent of control (FRK (human)): 99% | kinase still bound, per cent of control (MAP2K5 (human)): 100% | kinase still bound, per cent of control (MAP4K1 (human)): 100% | kinase still bound, per cent of control (MAP3K3 (human)): 81% | kinase still bound, per cent of control (MAP3K15 (human)): 96% | kinase still bound, per cent of control (ADCK3 (human)): 80% | kinase still bound, per cent of control (LIMK1 (human)): 100% | kinase still bound, per cent of control (PLK1 (human)): 90% | kinase still bound, per cent of control (MAPK13 (human)): 0% | kinase still bound, per cent of control (MYLK3 (human)): 100%

CC(C)n1nc(-c2cc3cc(O)ccc3[nH]2)c2c(N)ncnc21
kinase still bound, per cent of control (MAPK10 (human)): 72% | per cent of control (IGF1R (human)): 100% | kinase still bound, per cent of control (MAP3K2 (human)): 4.8% | kinase still bound, per cent of control (HUNK (human)): 99% | kinase still bound, per cent of control [1]: 16% | kinase still bound, per cent of control (ULK3 (human)): 65% | kinase still bound, per cent of control (BRAF (human)): 5.8% | kinase still bound, per cent of control (TAOK3 (human)): 4.7% | kinase still bound, per cent of control (MAP3K11 (human)): 79% | kinase still bound, per cent of control (CAMK2B (human)): 63% | per cent of control (CDK4 CCND1 (human)): 60% | per cent of control (CDKL3 (human)): 100% | kinase still bound, per cent of control (BLK (human)): 1.2% | kinase still bound, per cent of control (MKNK1 (human)): 19% | kinase still bound, per cent of control (SIK1 (human)): 13% | kinase still bound, per cent of control (MAP3K10 (human)): 53% | kinase still bound, per cent of control (SGK110 (human)): 100% | kinase still bound, per cent of control (BMPR1A (human)): 2.8% | kinase still bound, per cent of control (MST4 (human)): 31% | kinase still bound, per cent of control (ADCK4 (human)): 13% | kinase still bound, per cent of control (MAP3K7 (human)): 22% | kinase still bound, per cent of control (RAF1 (human)): 41% | kinase still bound, per cent of control (PAK3 (human)): 59% | kinase still bound, per cent of control (MARK3 (human)): 100% | per cent of control (CDK18 (human)): 100% | kinase still bound, per cent of control (TLK1 (human)): 75% | kinase still bound, per cent of control (ROCK2 (human)): 60% | kinase still bound, per cent of control (SIK3 (human)): 20% | kinase still bound, per cent of control (CHEK1 (human)): 66% | kinase still bound, per cent of control (FRK (human)): 12% | kinase still bound, per cent of control (MAP2K5 (human)): 0.35% | kinase still bound, per cent of control (MAP4K1 (human)): 33% | kinase still bound, per cent of control (MAP3K3 (human)): 3.2% | kinase still bound, per cent of control (MAP3K15 (human)): 76% | kinase still bound, per cent of control (ADCK3 (human)): 57% | kinase still bound, per cent of control (LIMK1 (human)): 73% | kinase still bound, per cent of control (PLK1 (human)): 87% | kinase still bound, per cent of control (MAPK13 (human)): 97%

CCC(=O)N1CCN(c2ccc(-n3c(=O)ccc4cnc5ccc(-c6cnc7ccccc7c6)cc5c43)cc2C(F)(F)F)CC1
kinase still bound, per cent of control (MAPK10 (human)): 31% | per cent of control (IGF1R (human)): 94% | kinase still bound, per cent of control (MAP3K2 (human)): 62% | kinase still bound, per cent of control (HUNK (human)): 91% | kinase still bound, per cent of control (ULK3 (human)): 100% | kinase still bound, per cent of control (BRAF (human)): 59% | kinase still bound, per cent of control (TAOK3 (human)): 76% | kinase still bound, per cent of control (CSNK1G2 (human)): 100% | kinase still bound, per cent of control (MAP3K11 (human)): 69% | kinase still bound, per cent of control (CAMK2B (human)): 100% | per cent of control (CDK4 CCND1 (human)): 100% | per cent of control (CDKL3 (human)): 92% | kinase still bound, per cent of control (BLK (human)): 75% | kinase still bound, per cent of control (MKNK1 (human)): 44% | kinase still bound, per cent of control (SIK1 (human)): 80% | kinase still bound, per cent of control (MAP3K10 (human)): 99% | kinase still bound, per cent of control (SGK110 (human)): 94% | kinase still bound, per cent of control (BMPR1A (human)): 45% | kinase still bound, per cent of control (MST4 (human)): 89% | kinase still bound, per cent of control (EGFR (human)): 85% | kinase still bound, per cent of control (ADCK4 (human)): 15% | kinase still bound, per cent of control (MAP3K7 (human)): 47% | kinase still bound, per cent of control (RAF1 (human)): 48% | kinase still bound, per cent of control (PAK3 (human)): 100% | kinase still bound, per cent of control (MARK3 (human)): 100% | per cent of control (CDK18 (human)): 97% | kinase still bound, per cent of control (TLK1 (human)): 100% | kinase still bound, per cent of control (ROCK2 (human)): 50% | kinase still bound, per cent of control (SIK3 (human)): 89% | kinase still bound, per cent of control (FRK (human)): 60% | kinase still bound, per cent of control (MAP2K5 (human)): 100% | kinase still bound, per cent of control (MAP4K1 (human)): 30% | kinase still bound, per cent of control (MAP3K3 (human)): 75% | kinase still bound, per cent of control (MAP3K15 (human)): 100% | kinase still bound, per cent of control (ADCK3 (human)): 17% | kinase still bound, per cent of control (LIMK1 (human)): 15% | kinase still bound, per cent of control (PLK1 (human)): 85% | kinase still bound, per cent of control (MAPK13 (human)): 39% | kinase still bound, per cent of control (MYLK3 (human)): 94%

Reference: the kinase profiling compilation of Christmann-Franck et al. (2016)
